Results from PMC3640759 (Molecular and biochemical parasitology, 2013).
pIC50: −log10 of the molar value. Read-outs that look alike come from different tables or passages of the source.

Legend:
[1] = test system: P. falciparum 3D7 strain stage III–V gametocytes; assay: alamarBlue gametocyte viability assay, 1,536-well plate format; assay type: cell-based, Plasmodium falciparum
[2] = cytotoxicity assay against SH-SY5Y neuroblastoma cells; conditions: human
in vitro = conditions: human
[3] = test system: P. falciparum gametocytes; conditions: read-out: IC50 reported in 96-well plate format; cited from earlier work
[4] = test system: SH-SY5Y neuroblastoma cell line; assay: cytotoxicity assay against SH-SY5Y neuroblastoma cells; conditions: SH-SY5Y cells; lowest compound concentration 0.37 μM
[5] = Plasmodium falciparum, 3D7, 72 h, read-out: IC50 (gametocyte assay)

In the case of `c1cnc2c(c1)ccc1cccnc12` [Phenanthroline, 1,10-phenanthroline], the pIC50 [1, 5] was 5.66 and the pIC50 ([2]; SH-SY5Y neuroblastoma cells) was 5.26.

For `Clc1ccccc1C(c1ccccc1)(c1ccccc1)n1ccnc1` [Clotrimazole], the pIC50 (in vitro) was 5.02.

Molecule `CCN(CC)C(=S)SSC(=S)N(CC)CC` [Antabuse] has a pIC50 [1, 5] of 6.60 and a pIC50 (in vitro) of 4.87.

`CC[C@H](C)[C@H](NC(=O)[C@H]([C@@H](C)CC)N(C)C(C)=O)C(=O)N[C@H](C(=O)N[C@@H](CC(C)C)C(=O)[C@@]1(C)CO1)[C@@H](C)O` [epoxomicin] showed a pIC50 ([1]; seeding density 10 k gametocytes/well, 1,536-well plate) of 8.89, a pIC50 ([1]; seeding density 20 k gametocytes/well, 1,536-well plate) of 8.74 and a pIC50 ([1]; seeding density 27.5 k gametocytes/well, 1,536-well plate) of 8.68. The pIC50 [3] was 8.67.

Molecule `Cc1cc(NC2CCCCC2)nc(-n2nc(C)cc2C)n1` [CyPPA, Cyclohexyl-[2-(3,5-dimethyl-pyrazol-1-yl)-6-methyl-pyrimidin-4-yl]-amine] has a pIC50 [1, 5] of 5.93 and a pIC50 ([2]; SH-SY5Y neuroblastoma cells) of 5.04.

In the case of `c1ccc2c(c1)[I+]c1ccccc1-2` [Dibenziodolium], the “cytotoxicity at lowest compound concentration tested” value [4] was “completely cytotoxic”.

For `CNc1ccc2oc(C[C@H]3O[C@@]4(CC[C@H]3C)O[C@H]([C@H](C)C(=O)c3ccc[nH]3)[C@H](C)C[C@H]4C)nc2c1C(=O)O` [Calcimycin], the pIC50 [1, 5] was 5.71 and the pIC50 [2] was 5.86.
